Assay results taken from PMC10403574, “Discovery of a pyrrole-pyridinimidazole derivative as novel SIRT6 inhibitor for sensitizing pancreatic cancer to gemcitabine” (Cell Death & Disease, 2023).

Assays:
BXPC-3 xenografts = test: BXPC-3 tumor xenograft in nude mice; format: in vivo, BALB/c nude mice
Procedure: Female BALB/c nude mice (14 ± 2 g, 4 weeks old) were purchase. About 2 × 10^6 of BXPC-3 cells were inoculated into nude mouse flanks. When the tumor volume reached approximately 100 mm^3, mice were randomly divided into four groups with six mice per group before treatment and then treated with vehicle, 8a (20 mg/kg), gemcitabine (10 mg/kg) and their combination every 2 days. Tumor volumes and body weight were measured every 3 days, and use the formula to calculate the tumor volume: V = (L × W × W)/2 (V, tumor volume; L, length; and W, width). Mice were sacrificed and tumor tissues were removed. Tumor tissues were fixed with paraformaldehyde (4%) and embedded with paraffin.
To further confirm whether 8a can enhance the antitumor effects of gemcitabine in vivo, the BXPC-3 PDAC xenografts were used. The mice with tumors received intraperitoneal injection of compound 8a (20 mg/kg), gemcitabine (10 mg/kg), or their combination once every 2 days for 4 weeks. Tumor volumes and body weight of mice were monitored every 3 days.

HDAC11 = HDAC11 (Homo sapiens, UniProt Q96DB2); test: Deacetylation activity selectivity, HDAC11; format: biochemical
Sequence of HDAC11 (Q96DB2 whole entry, species assumed): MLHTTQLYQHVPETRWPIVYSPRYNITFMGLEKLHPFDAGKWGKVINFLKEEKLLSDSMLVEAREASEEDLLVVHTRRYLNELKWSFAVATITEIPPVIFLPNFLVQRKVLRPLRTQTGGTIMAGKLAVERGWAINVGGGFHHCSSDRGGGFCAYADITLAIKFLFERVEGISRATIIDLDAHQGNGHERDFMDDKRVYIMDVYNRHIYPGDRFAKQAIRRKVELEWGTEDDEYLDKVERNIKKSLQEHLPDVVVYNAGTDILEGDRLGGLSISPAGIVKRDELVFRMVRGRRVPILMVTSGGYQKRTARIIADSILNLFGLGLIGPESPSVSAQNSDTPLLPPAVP
From the text: (§1) Based on the above results, 8a was further investigated in this study. […] To further evaluate the selectivity of 8a for SIRT6, we examined the effect of 8a on the deacetylation activity of other HDAC family members, including HDAC1-HDAC11, SIRT1-SIRT3 and SIRT5. […] Furthermore, to confirm binding of 8a to SIRT6 in cells, we carried out the cellular thermal shift assay (CETSA). The CETSA approach builds on the thermal shift assay concept where ligand binding to its target protein enhances the target protein stability. We observed that the thermal stability of SIRT6 increased after 8a treatment (Figs. 2c, d).

PANC-1 cells = test: MTT proliferation assay, PANC-1; format: cell-based; conditions: 72 h
Procedure: BXPC-3 and PANC-1 cells were plated in 96-well plates at 5000 cells per well. After 12 h attachment, varying concentrations of 8a were added into the culture medium for 72 h. Then 10 μL MTT (5 mg/ml) solution was added into per well for 4 h at 37 °C. After removing medium, formazan crystals were dissolved in 150 µL DMSO. The cells viability was quantified by measuring the absorbance at 570 nm.

SIRT2 = SIRT2 (Homo sapiens, UniProt Q8IXJ6); test: Deacetylation activity selectivity, SIRT2; format: biochemical
Sequence of SIRT2 (Q8IXJ6 whole entry, species assumed): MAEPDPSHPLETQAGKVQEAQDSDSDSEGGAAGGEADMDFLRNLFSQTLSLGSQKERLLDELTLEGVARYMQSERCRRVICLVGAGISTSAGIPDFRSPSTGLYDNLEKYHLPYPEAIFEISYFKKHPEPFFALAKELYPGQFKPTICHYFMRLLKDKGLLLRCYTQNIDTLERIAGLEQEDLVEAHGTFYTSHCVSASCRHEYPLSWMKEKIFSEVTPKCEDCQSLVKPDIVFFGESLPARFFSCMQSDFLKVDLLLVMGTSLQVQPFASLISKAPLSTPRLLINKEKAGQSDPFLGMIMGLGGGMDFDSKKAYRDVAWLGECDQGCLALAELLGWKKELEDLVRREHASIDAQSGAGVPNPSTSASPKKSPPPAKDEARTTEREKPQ
Procedure: (§2) Fluor-De-Lys (FDL) assays were used for the examination of the deacetylation activities of sirtuins as described previously. For the detection of SIRT6 activity, the 50-μL reaction mixture contained 5 μM SIRT6, 2.5 mM NAD^+ (β-Nicotinamide adenine dinucleotide hydrate, Sigma, N1636), 75 μM RHKK-Ac-AMC (GL Biochem, Shanghai), compounds/DMSO, and assay buffer. The reactions were incubated at 37 °C for 2 h, added 50 μL stop solution (40 mM nicotinamide, 6 mg/mL trypsin) at 25 °C for 30 min. Fluorescence intensity was measured at an excitation wavelength of 360 nm and an emission wavelength of 460 nm. IC50 values were calculated in GraphPad Prism version 8.00.
as §1

BXPC-3 cells [1] = test: Western blot of BXPC-3 cells; format: cell-based
Procedure: Cells were harvested and lysed in a lysis buffer (solarbio, R0010) supplementing 1 mM PMSF and protease inhibitor (TargetMol, USA). […] The blocked membrane was incubated with primary antibodies:SIRT6 (1:1000, Cell Signaling Technology, Cat#12486S, RRID:AB_2636969), Histone H3 Antibody (1:1000, Cell Signaling Technology, Cat#9715S, RRID:AB_331563), β-Actin (1:2000, Cell Signaling Technology, Cat#4970S, RRID:AB_2223172), Cleaved caspases-3 (1:1000, Cell Signaling Technology, Cat#9661S, RRID:AB_2341188), Cleaved Caspase-9 (Asp315) (1:1000, Cell Signaling Technology, Cat#20750S,RRID:AB_2798848), Cleaved PARP (1:1000, Cell Signaling Technology, Cat#5625S, RRID:AB_10699459), AKT (1:1000, Cell Signaling Technology, Cat#9272S, RRID:AB_329827), Phospho-AKT (Ser473) (D9E) (1:1000, Cell Signaling Technology, Cat#4060S, RRID:AB_2315049), ERK1/2 (1:1000, Cell Signaling Technology, Cat#4695S, RRID:AB_390779), Phospho-p44/42 MAPK (ERK1/2) (Thr202/Tyr204) (1:1000, Cell Signaling Technology, Cat#4370S, RRID:AB_2315112), Cyclin D1 (E3P5S) (1:1000, Cell Signaling Technology, Cat#55506 S, RRID:AB_2827374), Phospho-mTOR(Ser2448) (1:1000,Cell Signaling Technology, Cat#5536S, RRID:AB_10691552), Phospho-p70S6Kinase (Thr421/Ser424) (1:1000, Cell Signaling Technology, Cat#9204 S, RRID:AB_2265913), Phospho-Histone H2A.X (Ser139) (1:1000, Cell Signaling Technology, Cat#9718S, RRID:AB_2118009) at 4 °C overnight. After being washed with TBST, the membranes were incubated with horseradish peroxidase-conjugated secondary antibodies at room temperature for 1 h. Then, the membranes were detected by Tanon 5200 (Tanon, Beijing, China).

HDAC7 = HDAC7 (Homo sapiens, UniProt Q8WUI4); test: Deacetylation activity selectivity, HDAC7; format: biochemical
Sequence of HDAC7 (Q8WUI4 whole entry): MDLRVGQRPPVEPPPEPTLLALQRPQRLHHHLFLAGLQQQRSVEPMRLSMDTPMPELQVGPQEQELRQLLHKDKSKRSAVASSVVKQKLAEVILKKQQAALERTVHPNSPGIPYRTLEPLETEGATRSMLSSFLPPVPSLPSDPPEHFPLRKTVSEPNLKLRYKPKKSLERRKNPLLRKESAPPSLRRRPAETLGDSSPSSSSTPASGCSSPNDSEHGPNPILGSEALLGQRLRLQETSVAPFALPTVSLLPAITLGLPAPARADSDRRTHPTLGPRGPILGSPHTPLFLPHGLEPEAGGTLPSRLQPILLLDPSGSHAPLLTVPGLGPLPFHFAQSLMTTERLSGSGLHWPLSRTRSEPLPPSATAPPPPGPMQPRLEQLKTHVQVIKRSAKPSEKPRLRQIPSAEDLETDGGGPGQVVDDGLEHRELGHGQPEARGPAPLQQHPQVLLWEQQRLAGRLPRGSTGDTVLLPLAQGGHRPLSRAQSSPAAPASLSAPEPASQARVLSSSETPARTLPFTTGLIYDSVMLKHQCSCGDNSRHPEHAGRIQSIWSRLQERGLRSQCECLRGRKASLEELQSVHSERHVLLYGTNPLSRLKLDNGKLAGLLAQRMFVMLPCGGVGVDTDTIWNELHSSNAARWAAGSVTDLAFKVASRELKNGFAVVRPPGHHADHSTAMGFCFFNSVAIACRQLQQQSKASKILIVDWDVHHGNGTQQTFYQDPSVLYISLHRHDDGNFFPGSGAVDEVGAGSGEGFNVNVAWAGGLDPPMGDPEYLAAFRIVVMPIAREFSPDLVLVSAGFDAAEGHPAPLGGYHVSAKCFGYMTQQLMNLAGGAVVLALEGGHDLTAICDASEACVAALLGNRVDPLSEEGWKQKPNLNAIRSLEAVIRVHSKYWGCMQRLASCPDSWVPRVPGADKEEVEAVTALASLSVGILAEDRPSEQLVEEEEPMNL
From the text: as §1

SIRT1 = SIRT1 (Homo sapiens, UniProt Q96EB6); test: Deacetylation activity selectivity, SIRT1; format: biochemical
Sequence of SIRT1 (Q96EB6 whole entry, species assumed): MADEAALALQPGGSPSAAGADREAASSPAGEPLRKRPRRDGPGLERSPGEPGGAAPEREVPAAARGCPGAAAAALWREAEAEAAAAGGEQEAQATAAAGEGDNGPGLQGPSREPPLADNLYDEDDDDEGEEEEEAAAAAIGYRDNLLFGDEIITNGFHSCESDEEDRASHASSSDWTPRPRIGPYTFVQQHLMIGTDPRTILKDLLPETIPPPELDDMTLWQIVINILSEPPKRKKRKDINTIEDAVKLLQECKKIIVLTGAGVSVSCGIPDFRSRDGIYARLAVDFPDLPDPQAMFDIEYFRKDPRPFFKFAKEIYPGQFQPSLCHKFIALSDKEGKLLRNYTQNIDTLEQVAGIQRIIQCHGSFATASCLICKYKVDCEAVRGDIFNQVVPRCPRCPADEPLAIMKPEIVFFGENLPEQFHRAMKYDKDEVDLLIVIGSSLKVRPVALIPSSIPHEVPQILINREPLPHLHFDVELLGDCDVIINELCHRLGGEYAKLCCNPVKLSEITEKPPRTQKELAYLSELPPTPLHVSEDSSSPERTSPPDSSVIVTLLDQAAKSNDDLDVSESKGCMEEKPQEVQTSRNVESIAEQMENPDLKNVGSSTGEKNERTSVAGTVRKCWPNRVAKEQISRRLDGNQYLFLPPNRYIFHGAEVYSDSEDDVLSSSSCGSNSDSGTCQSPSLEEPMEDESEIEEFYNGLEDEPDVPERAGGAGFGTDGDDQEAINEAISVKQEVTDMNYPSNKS
Procedure: as §2, §1

BXPC-3 cells [2] = test: Colony formation assay; format: cell-based; conditions: dose-dependent
Procedure: The BXPC-3 cells were plated in six-well plates at 1000 cells per well. After 12 h, different concentrations of 8a, Gemcitabine or their combination were added for 7–10 days. The cells were fixed for 15 min with paraformaldehyde (4%) and then stained with crystal violet (0.1%) for 15 min at room temperature. Surviving colonies consisting of 50 or more cells were counted under microscope.

HDAC9 = HDAC9 (Homo sapiens, UniProt Q9UKV0); test: Deacetylation activity selectivity, HDAC9; format: biochemical
Sequence of HDAC9 (Q9UKV0 whole entry, species assumed): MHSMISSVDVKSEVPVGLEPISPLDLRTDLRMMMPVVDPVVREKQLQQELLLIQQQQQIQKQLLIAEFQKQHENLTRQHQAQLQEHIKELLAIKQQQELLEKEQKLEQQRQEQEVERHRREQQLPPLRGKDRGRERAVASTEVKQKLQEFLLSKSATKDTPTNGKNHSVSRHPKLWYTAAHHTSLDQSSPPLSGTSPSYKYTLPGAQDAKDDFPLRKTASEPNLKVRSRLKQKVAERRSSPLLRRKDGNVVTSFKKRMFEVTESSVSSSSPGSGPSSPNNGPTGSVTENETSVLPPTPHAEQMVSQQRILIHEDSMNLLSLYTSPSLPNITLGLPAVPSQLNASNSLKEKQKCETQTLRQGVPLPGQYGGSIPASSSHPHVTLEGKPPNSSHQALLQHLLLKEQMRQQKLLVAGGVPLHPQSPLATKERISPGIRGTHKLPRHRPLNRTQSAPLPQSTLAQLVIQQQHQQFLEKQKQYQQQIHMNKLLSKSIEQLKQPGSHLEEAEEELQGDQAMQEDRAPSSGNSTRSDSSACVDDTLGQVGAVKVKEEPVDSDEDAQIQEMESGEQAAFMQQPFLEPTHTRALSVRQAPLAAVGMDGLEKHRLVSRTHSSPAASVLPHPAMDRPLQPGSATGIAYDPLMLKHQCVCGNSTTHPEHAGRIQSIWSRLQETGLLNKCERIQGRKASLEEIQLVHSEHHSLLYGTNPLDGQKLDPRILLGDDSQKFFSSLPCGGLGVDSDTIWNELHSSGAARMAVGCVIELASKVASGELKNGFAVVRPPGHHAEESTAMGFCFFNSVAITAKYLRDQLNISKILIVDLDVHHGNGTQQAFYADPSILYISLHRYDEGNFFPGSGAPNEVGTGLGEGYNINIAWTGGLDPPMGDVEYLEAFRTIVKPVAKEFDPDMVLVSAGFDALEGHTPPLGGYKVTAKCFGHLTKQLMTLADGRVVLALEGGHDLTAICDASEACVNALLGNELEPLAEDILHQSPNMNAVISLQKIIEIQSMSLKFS
From the text: as §1

IC50 (HDAC11): > 200 µM
IC50 (PANC-1 cells): 9.28 µM
IC50 (SIRT2): 92.2 ± 1.95 µM
IC50 (HDAC7): > 200 µM
IC50 (SIRT1): 80.5 ± 1.91 µM
IC50 (HDAC9): > 200 µM
Compound: Br.CN(C)C(SCCCCCCn1cnc2c(-c3cc(Br)c(Br)[nH]3)nccc21)=[N+](C)C.[Cl-] [Compound 8a]
tumor inhibition (BXPC-3 xenografts; 8a 20 mg/kg i.p. once every 2 days for 4 weeks, vs control mice): 27%
Ac-H3K9 in tumor tissue (BXPC-3 xenografts; western blotting of tumor tissue samples, 8a 20 mg/kg): elevated
cyclin D1 expression (BXPC-3 cells [1]; BXPC-3, 48 h, dose-dependent): decreased
expression of cleaved-PARP, cleaved-Caspase3, and cleaved-Caspase9 (BXPC-3 cells [1]; BXPC-3, western blot): significantly up-regulated
p-mTOR, p-P70S6K, p-AKT, and p-ERK (BXPC-3 cells [1]; BXPC-3, western blot): significantly down-regulated
acetylation level of H3K9 (BXPC-3 cells [1]; BXPC-3 cells, western blot, dose-dependent): increased
colony formation (BXPC-3 cells [2]): much smaller and fewer colonies
